Patent publication US4272437A, “Antibacterial agents, and 4-thio azetidinone intermediates” (priority 1979, dated 1981)
Values after ≈ are worked out from the molar mass of the structure shown. Where a name gives a salt, the structure may show the parent alone. Read-outs that look alike come from different tables or passages of the source.

Legend:
[1] = tested on: Klebsiella species A20468; test: MIC, tube dilution, Klebsiella species A20468; format: cell-based; details: Klebsiella species (K. pneumoniae) A20468; overnight 37° C.; read-out: Minimum Inhibitory Concentration (M.I.C.)
Source text: (§1) Representative compounds of the present invention were subjected to in vitro antibiotic screening against a variety of microorganisms.

K. pneumoniae A-15130 = test: MIC, tube dilution, Klebsiella pneumoniae A15130; format: cell-based; details: Klebsiella pneumoniae, A15130, K. pneumoniae A15130; overnight 37° C.; read-out: Minimum Inhibitory Concentration (M.I.C.)
Source text: as §1

Str. faecalis A-20688 = test: MIC, tube dilution, Streptococcus faecalis A20688; format: cell-based; details: Enterococcus faecalis, A20688, Str. faecalis A20688; overnight 37° C.; read-out: Minimum Inhibitory Concentration (M.I.C.)
Source text: as §1

Ps. aeruginosa A-9843A = test: MIC, tube dilution, Pseudomonas aeruginosa A9843A; format: cell-based; details: Pseudomonas aeruginosa, A9843A, read-out: Minimum Inhibitory Concentration (M.I.C.), Pseudomonas aeruginosa A9843A; overnight 37° C.
Source text: as §1

Proteus rettgeri A21203 = test: MIC, tube dilution, Proteus rettgeri A21203; format: cell-based; details: Providencia rettgeri, overnight 37° C., read-out: Minimum Inhibitory Concentration (M.I.C.)
Source text: as §1

[2] = tested on: Staph. aureus (Pen-Res) A-9606; test: MIC, tube dilution, Staphylococcus aureus A9606 (Pen-Res); format: cell-based; details: Staphylococcus aureus, overnight 37° C.
Source text: as §1

Pr. mirabilis A-9900 = test: MIC, tube dilution, Proteus mirabilis A9900; format: cell-based; details: Proteus mirabilis, A9900, Proteus mirabilis A9900; overnight 37° C.; read-out: Minimum Inhibitory Concentration (M.I.C.)
Source text: as §1

[3] = tested on: Staph. aureus (Meth-Res) A-15097; test: MIC, tube dilution, Staphylococcus aureus A15097 (Meth-Res); format: cell-based; details: Staphylococcus aureus, overnight 37° C.
Source text: as §1

Str. pyogenes A-9604 = test: MIC, tube dilution, Streptococcus pyogenes A9604; format: cell-based; details: Streptococcus pyogenes, A9604, Str. pyogenes A9604; overnight 37° C., Nutrient Broth; read-out: Minimum Inhibitory Concentration (M.I.C.)
Source text: as §1

Str. pneumoniae A-9585 = test: MIC, tube dilution, Streptococcus pneumoniae A9585; format: cell-based; details: Streptococcus pneumoniae, A9585, Str. pneumoniae A9585; overnight 37° C., Nutrient Broth; read-out: Minimum Inhibitory Concentration (M.I.C.)
Source text: as §1

Ps. aeruginosa A-21213 = test: MIC, tube dilution, Pseudomonas aeruginosa A21213; format: cell-based; details: Pseudomonas aeruginosa A21213; overnight 37° C.; read-out: Minimum Inhibitory Concentration (M.I.C.)
Source text: as §1

E. coli A-20341-1 = test: MIC, tube dilution, Escherichia coli A20341-1; format: cell-based
Source text: as §1

E. coli A-15119 = test: MIC, tube dilution, Escherichia coli A15119; format: cell-based; details: Escherichia coli, A15119, E. coli A15119; overnight 37° C.; read-out: Minimum Inhibitory Concentration (M.I.C.)
Source text: as §1

Pr. morganii A-15153 = test: MIC, tube dilution, Proteus morganii A15153; format: cell-based; details: Morganella morganii, A15153, Proteus morganii A15153; overnight 37° C.; read-out: Minimum Inhibitory Concentration (M.I.C.)
Source text: as §1

Staph. aureus A-9537 = test: MIC, tube dilution, Staphylococcus aureus A9537; format: cell-based; details: Staphylococcus aureus, A9537, Staph. aureus A9537; overnight 37° C., Nutrient Broth; read-out: Minimum Inhibitory Concentration (M.I.C.)
Source text: as §1

Ser. marcescens A-20019 = test: MIC, tube dilution, Serratia marcescens A20019; format: cell-based; details: Serratia marcescens, A20019, Serratia marcescens A20019; overnight 37° C.; read-out: Minimum Inhibitory Concentration (M.I.C.)
Source text: as §1

[4] = tested on: Staph. aureus A-9537 and 50% serum; test: MIC, tube dilution, Staph. aureus A9537 + 50% serum; format: cell-based, Staphylococcus aureus; details: Staphylococcus aureus, overnight 37° C., read-out: Minimum Inhibitory Concentration (M.I.C.)
Source text: as §1

Ent. cloacae A-9659 = test: MIC, tube dilution, Enterobacter cloacae A9659; format: cell-based; details: Enterobacter cloacae, A9659, Enterobacter cloacae A9659; overnight 37° C.; read-out: Minimum Inhibitory Concentration (M.I.C.)
Source text: as §1

Proteus vulgaris A9555 = test: MIC, tube dilution, Proteus vulgaris (mirabilis) A9555; format: cell-based; details: overnight 37° C., read-out: Minimum Inhibitory Concentration (M.I.C.)
Source text: as §1

Ent. cloacae A-9656 = test: MIC, tube dilution, Enterobacter cloacae A9656; format: cell-based; details: overnight 37° C., read-out: Minimum Inhibitory Concentration (M.I.C.)
Source text: as §1

[5] = A21203, Proteus rettgeri A21203
[6] = Staph. aureus A9606 (Pen-Res), read-out: Minimum Inhibitory Concentration (M.I.C.)
[7] = Staph. aureus A15097 (Meth-Res), read-out: Minimum Inhibitory Concentration (M.I.C.)
[8] = Escherichia coli, A203411; E. coli A20341-1; overnight 37° C.; read-out: Minimum Inhibitory Concentration (M.I.C.)

| Compound | MIC [1] [µg/mL] | MIC (K. pneumoniae A-15130) [µg/mL] | MIC (Str. faecalis A-20688) [µg/mL] | MIC (Ps. aeruginosa A-9843A) [µg/mL] | MIC (Proteus rettgeri A21203; [5]) [µg/mL] | MIC [2, 6] [µg/mL] | MIC (Pr. mirabilis A-9900) [µg/mL] | MIC [3, 7] [µg/mL] | MIC (Str. pyogenes A-9604) [µg/mL] | MIC (Str. pneumoniae A-9585) [µg/mL] | MIC (Ps. aeruginosa A-21213) [µg/mL] | MIC (E. coli A-20341-1; [8]) [µg/mL] | MIC (E. coli A-15119) [µg/mL] | MIC (Pr. morganii A-15153) [µg/mL] | MIC (Staph. aureus A-9537) [µg/mL] | MIC (Ser. marcescens A-20019) [µg/mL] | MIC [4] [µg/mL] | MIC (Ent. cloacae A-9659) [µg/mL] | MIC (Proteus vulgaris A9555) [µg/mL] | MIC (Ent. cloacae A-9656; Enterobacter cloacae A9656) [µg/mL] | further results |
| --- | --- | --- | --- | --- | --- | --- | --- | --- | --- | --- | --- | --- | --- | --- | --- | --- | --- | --- | --- | --- | --- |
| CC1=C(C(=O)O)N2C(=O)[C@H](C(C)(C)O)[C@H]2S1 (relative stereo) [Example 32, trans 6-(2'-Hydroxy-2'-propyl)-2-methylpenem-3-carboxylic Acid] | > 125 | 125 (≈ 514 µM) | > 125 | 125 (≈ 514 µM) | 63 (≈ 259 µM) | 16 (≈ 65.8 µM) | 63 (≈ 259 µM) | 63 (≈ 259 µM) | 8 (≈ 32.9 µM) | 0.25 (≈ 1.03 µM) | 125 (≈ 514 µM) | > 125 | 63 (≈ 259 µM) | 125 (≈ 514 µM) | 8 (≈ 32.9 µM) | 63 (≈ 259 µM) | 32 | 125 (≈ 514 µM) | 125 (≈ 514 µM) | 125 (≈ 514 µM) |  |
| CSc1nnc(C2=C(C(=O)O)N3C(=O)CC3S2)o1 (stereo not drawn) [Example 56, Sodium 3-(5-Methylthio-1,3,4-oxadiazol-2-yl)penem-3-carboxylate] | > 125 | > 125 | > 125 | 125 |  |  | > 125 |  | 125 | 125 | 125 | > 125 | > 125 | > 125 | > 125 | > 125 | > 63 | > 125 | > 125 | > 125 | MIC (Proteus rettgeri A21203; Proteus rettgeri A21203): > 125 µg/mL; MIC ([2]; read-out: Minimum Inhibitory Concentration (M.I.C.), Staph. aureus A9606 (Pen-Res)): > 125 µg/mL; MIC ([3]; read-out: Minimum Inhibitory Concentration (M.I.C.), Staph. aureus A15097 (Meth-Res)): > 125 µg/mL |
| CC1=C(C(=O)O)N2C(=O)[C@@H]([C@@H](C)O)[C@H]2S1 (relative stereo) [Example 34, cis 6-(1'-Hydroxy-1'-ethyl)-2-methylpenem-3-carboxylic Acid, Sodium Salt (isomer "D")] | 125 | 32 | 125 | 125 | 32 | 4 | 16 | 16 | 2 | 0.25 | 125 |  | 4 | 32 | 4 | 32 | 63 | 32 | 16 |  | MIC (E. coli A-20341-1; Escherichia coli, A203411, E. coli A20341-1; overnight 37° C.; read-out: Minimum Inhibitory Concentration (M.I.C.)): 16 µg/mL; MIC (Ent. cloacae A-9656; Enterobacter cloacae, A9656, Enterobacter cloacae A9656): 63 µg/mL |
